Laboratory results reported in patent publication US7150967B2, “Fluorescent tags for amino acid and nucleic acid analysis” (University of Medicine & Dentistry of New Jersey, priority 2002, dated 2006).

Tests used:
BSA = BSA (Bos taurus, UniProt P02769); experiment: Detection of a protein on a 10% PAGE gel via formation of a fluorescent reaction product; parameters: species or system bovine; details: BSA 150 μg, 1.5 nmol compound, 30 minutes at 37° C.
Experimental: In these experiments, BSA (150 μg) was reacted with the mercurimethyl-dihydropsoralen 3-cyanomercurio-H2DMP (1.5 nmol) for 30 minutes at 37° C. The products were then run on a 10% PAGE gel to separate any reaction product from unreacted psoralen. The fluorescent BSA-mercurimethyl-dihydropsoralen reaction product was […].

[1] = target: bovine serum albumin (BSA) (Bos taurus, UniProt P02769); experiment: Reaction with the thiol containing species bovine serum albumin, monitored by ultraviolet absorbance spectra; details: BSA 0.1 μg, 2.5 μmol compound, 30 minutes at 37° C.
Experimental: BSA (0.1 μg) was reacted with 2.5 μmol iodomercurio-H2DMP (IM-H2DMP) for 30 minutes at 37° C.

Chain of bovine serum albumin (BSA) (P02769 25-607): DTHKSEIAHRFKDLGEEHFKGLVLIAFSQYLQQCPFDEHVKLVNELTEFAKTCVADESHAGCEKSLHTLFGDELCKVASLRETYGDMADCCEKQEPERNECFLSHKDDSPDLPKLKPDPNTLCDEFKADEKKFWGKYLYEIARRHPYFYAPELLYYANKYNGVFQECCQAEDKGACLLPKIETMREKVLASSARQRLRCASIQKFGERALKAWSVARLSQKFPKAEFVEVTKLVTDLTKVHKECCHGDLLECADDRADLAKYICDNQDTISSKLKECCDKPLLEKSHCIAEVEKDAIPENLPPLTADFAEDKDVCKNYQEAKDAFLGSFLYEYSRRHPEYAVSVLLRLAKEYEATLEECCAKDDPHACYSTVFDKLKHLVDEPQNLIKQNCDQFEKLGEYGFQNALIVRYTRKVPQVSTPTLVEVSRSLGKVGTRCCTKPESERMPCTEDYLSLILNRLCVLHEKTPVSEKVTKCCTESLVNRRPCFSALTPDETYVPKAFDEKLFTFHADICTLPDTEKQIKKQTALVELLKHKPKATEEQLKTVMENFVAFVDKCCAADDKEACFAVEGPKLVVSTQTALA

Row | Compound | ability to detect a protein on a gel via fluorescent reaction product (BSA) | change in ultraviolet absorbance spectra (formation of new reaction product) [1]
1 | CC(=O)[O][Hg][CH2]C1Cc2cc3c(C)c(C#N)c(=O)oc3c(C)c2O1 (centres unmarked) [Compound P6, 3-cyano-acetylmercurio-H2DMP] | demonstrated | –
2 | Cc1cc(=O)oc2c(C)c3c(cc12)CC([CH2][Hg][I])O3 (centres unmarked) [Compound P1, iodomercurio-H2DMP] | – | change in the ultraviolet absorbance spectra indicative of formation of a new reaction product was observed
